Assay results: patent US9738684B2, “N-terminally modified linear and branched polyamine conjugated peptidomimetics as antimicrobials agents” (COUNCIL OF SCIENTIFIC & INDUSTRIAL RESEARCH, priority 2015, dated 2017)
Several values for one entry are separate records, joined by “and”; a condition that tells them apart may be missing. Equal values may be shown once.

Legend:
MRSA = assay: MIC in presence of 25% v/v human serum; assay type: cell-based, Staphylococcus aureus
Description: Following bacterial strains were used in this study: S. aureus (ATCC 29213), methicillin resistant S. aureus (ATCC 33591), Staphylococcus epidermidis (ATCC 12228), methicillin resistant Staphylococcus epidermidis(ATCC 51625), Enterococcus faecalis (ATCC 7080), Escherichia coli (ATCC 11775), and Acinetobacter baumannii (ATCC 19606). Antibacterial activity was evaluated using a modified serial broth dilution method in accordance with Clinical Laboratory Standard Institute guidelines [Methods for dilution antimicrobial susceptibility tests for bacteria that grow aerobically-7th ed. Approved standard M7-A7. Clinical and Laboratory Standards Institute, Wayne, Pa., Biochim. Biophys. Acta 1798:1864-1875, 2010.]. Briefly, the inoculums were prepared from mid-log phase bacterial cultures. Peptidomimetics were incubated with bacterial suspension in Muller Hinton broth media (10^5 CFU/mL) in 96 well microtitre plate. The plates were incubated overnight with agitation (200 rpm) at 37° C. After 18 h, absorbance was measured at 630 nm. Cultures without test peptidomimetics were used as positive control. Un-inoculated Mueller Hinton Broth (MHB) was used as negative control. Tests were carried out in duplicate on at least three different days. […] Further, antibacterial activity of active peptidomimetics 1c and 1d were also evaluated against MRSA in presence of 25% v/v human serum as well as bovine serum.

S. aureus (ATCC 33591) = assay: Resistance development study, serial passage at sub MIC; assay type: cell-based, Staphylococcus aureus; details: 17 serial passages at sub MIC
Description: FIG. 5: Illustration of resistance development study in S. aureus (ATCC 33591) after 17 serial passages with sub MIC of 1c/1d or antibiotic treatment. The fold change in MIC is the ratio of the MIC after 17 passages relative to that MIC observed before first passage.
To determine potential of active peptidomimetics against resistance development, in vitro serial passage method at sub inhibitory concentration was done. Briefly, bacterial suspension (100 μL) from duplicate wells at the concentration of sub-MIC was used to inoculate fresh culture. The culture was grown to obtain approximately 10^5 CFU/mL for the next experiment. These bacterial suspensions were then incubated with desired concentration of antibacterial agents for 18 h to determine new MIC. The same sub culturing protocol was used for next 16 passages and MIC was determined using OD630 nm as described previously in the text [Chem. Biol., 20:1286-1295, 2013.]

[1] = tested on: peripheral blood mononuclear cells (PBMCs); assay: LDH release cytotoxicity assay; assay type: cell-based, human; details: 20 μg/mL, 24 h
Description: For the experiment a protocol as used previously was employed with minor modifications [J. Immunol. Methods, 115:61-69, 1988; Chem. Biol. 20:1286-1295, 2013.]. Briefly, blood was collected from healthy human donors in sodium heparin anticoagulant tubes in accordance with institutional guidelines. The blood was diluted 1:1 with NaCl/Pi (35 mM phosphate buffer, 150 mM NaCl, pH 7.2). Blood cells were separated over histopaque (Sigma-aldrich) by centrifugation for 30 min at 1200 rpm. The PBMCs were collected and washed twice with NaCl/Pi (35 mM phosphate buffer, 150 mM NaCl, pH 7.2). The cells were then re-suspended in complete RPMI 1640 medium (Himedia) supplemented with 10% FBS (Sigma) and quantified by trypan blue exclusion on microscope. PBMCs (1×10^6 cells/mL) in complete media were seeded into a 24-well plate and left in the incubator for 2 h at 37° C. in 5% CO2. The cells were then treated with 1c, 1d and VAN at desired concentrations (20 μg/mL). 2% Triton X-100 was used as a […] control. After 24 h of incubation, the content of each well was transferred to sterile 1.5 mL eppendorf tube and cells were pelleted at 2000 rpm for 10 min. The supernatant was assessed for the release of LDH by using the TOX7 kit (Sigma). […]

[2] = tested on: MRSA (ATCC 33591) biofilm; assay: Confocal laser scanning microscopy of biofilm, thickness by z-stacking; assay type: cell-based, Staphylococcus aureus; details: for thickness of mature biofilm after treatment: 10×MICb, untreated 23.6±2.5 μm; for thickness of mature biofilm after treatment / confocal observation of mature biofilm: 24 h preformed biofilm; for confocal observation of mature biofilm: 20×MICb; for average thickness of biofilm, biofilm formation: MICb; for average thickness of biofilm, biofilm formation / thickness of biofilm, biofilm formation: control 14.3±1.4 μm; for thickness of biofilm, biofilm formation: sub-MICb
From the text: For visualization of biofilm and validation of AB and CV assay we performed confocal microscopy. For this biofilm formation was induced on glass cover slips in a 6-well plate. The biofilm on cover slips were washed twice with sterile NaCl/Pi buffer and stained with a Live/Dead kit reagent (Invitrogen, Molecular Probes, Eugene, Oreg., USA) following the manufacturer's instructions. This stain contains DNA binding dyes SYTO 9 (green fluorescent) and propidium iodide (PI; red fluorescent). When used alone, SYTO 9 stains all bacteria in a population, those with intact as well as damaged membranes. In contrast, PI penetrates only bacteria with damaged membranes, causing a reduction in the SYTO 9 stain (green fluorescence). The biofilms were examined with an Olympus flow view FV1000 (confocal laser scanning microscope, CLSM). The experiment was repeated three times on three different days and representative data is presented here.
We next measured the thickness of biofilm using z-stacking in confocal microscopy. […] At MICb, 1c and 1d prevented formation of biofilm in which very few cells were adhered to substratum with observed average thickness of 3.9±1.1 μm and 3.5±0.6 μm, respectively. Furthermore, at sub-MICb concentration the observed thicknesses were 5.2±0.3 μm and 5.8±0.4 μm (FIG. 7A.b and FIG. 7A.d).

| SMILES | increase in MIC in human serum (MRSA) | increase in MIC after 17 passages (S. aureus (ATCC 33591)) | % LDH release against peripheral blood mononuclear cells [1] | thickness of mature biofilm after treatment [2] | confocal observation of mature biofilm [2] | average thickness of biofilm, biofilm formation [2] | thickness of biofilm, biofilm formation [2] |
| --- | --- | --- | --- | --- | --- | --- | --- |
| CCCCCCCCCC(=O)NC(Cc1c[nH]c2ccccc12)C(=O)NC(Cc1c[nH]c2ccccc12)C(=O)NCCCNCCCCNCCCN (centres unmarked) [1d] | 8 fold | 2 fold | 17.56±10.15% and 17.5% | 7.0±1.0 μm | most of the cells lost their integrity | 3.5±0.6 μm | 5.8±0.4 μm |
| NCCCNCCCCNCCCNC(=O)C(Cc1c[nH]c2ccccc12)NC(=O)C(Cc1c[nH]c2ccccc12)NC(=O)Cc1ccc(C(F)(F)F)cc1 (centres unmarked) [1c] | 4 fold | 4 fold | 5.78±6.58% and 5.78% | 7.1±1.5 μm | most of the cells lost their integrity | 3.9±1.1 μm | 5.2±0.3 μm |
